Reference: US20060183780A1, “Pyrazole compounds useful in the treatment of inflammation” (priority 2003, published 2006)

target: T1, 15-lipoxygenase (Homo sapiens, UniProt P16050); assay: 15-lipoxygenase inhibition, DPPP fluorescence assay with linoleic acid; type: biochemical; conditions: biological test method; test concentration not given
T1 sequence (P16050 1-662): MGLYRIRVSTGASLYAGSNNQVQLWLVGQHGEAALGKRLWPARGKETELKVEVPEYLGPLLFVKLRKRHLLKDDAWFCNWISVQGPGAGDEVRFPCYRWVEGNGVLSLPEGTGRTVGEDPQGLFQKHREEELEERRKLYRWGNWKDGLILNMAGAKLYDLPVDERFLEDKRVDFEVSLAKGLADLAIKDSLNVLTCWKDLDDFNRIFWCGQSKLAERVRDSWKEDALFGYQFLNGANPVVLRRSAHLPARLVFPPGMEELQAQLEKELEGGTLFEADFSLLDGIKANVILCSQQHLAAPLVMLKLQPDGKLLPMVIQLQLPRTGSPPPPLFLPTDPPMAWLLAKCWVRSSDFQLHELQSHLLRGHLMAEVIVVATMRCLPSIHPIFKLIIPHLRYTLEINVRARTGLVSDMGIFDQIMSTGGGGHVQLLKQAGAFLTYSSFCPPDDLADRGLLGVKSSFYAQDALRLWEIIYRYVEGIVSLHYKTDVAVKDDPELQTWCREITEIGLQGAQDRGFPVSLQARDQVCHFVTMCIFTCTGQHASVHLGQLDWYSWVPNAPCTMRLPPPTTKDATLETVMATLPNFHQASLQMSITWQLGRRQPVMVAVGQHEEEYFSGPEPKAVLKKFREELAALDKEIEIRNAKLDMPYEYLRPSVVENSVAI
Protocol: The assay employed takes advantage of the ability of lipid hydroperoxides to oxidize the non-fluorescent diphenyl-1-pyrenylphosphine (DPPP) to its corresponding fluorescent phosphine oxide. Fluorescence is measured using a dual-scanning microplate spectrofluorometer, Spectramax Gemini, from Molecular Devices. DPPP was purchased from Molecular Probes. Linoleic acid was from Biomol and PBS (phosphate buffered saline) from Gibco Life Technologies. The assay is performed in 96-well plates at room temperature (20-22° C.). The following are added (in the following order) to each well:
a) 35 μl of Dulbecco's phosphate buffered saline (PBS);
b) inhibitor (i.e. compound) or vehicle (0.5 μl DMSO);
c) 10 μL of a 5× concentrated 15-lipoxygenase solution in PBS. The plates are incubated for 5 minutes at room temperature;
d) 5 μl of 2 mM linoleic acid in PBS. The plate is then incubated for 20 minutes at room temperature;
e) the enzymatic reaction is terminated by the addition of 50 μl methanol; and
f) 50 μl of 200 μM DPPP in methanol is added to each well.
After 30 minutes at room temperature, the fluorescence can be read using an excitation wavelength of 358 nm and an emission wavelength of 379 nm.

Structure (SMILES) | inhibition of 15-lipoxygenase
O=C(Nc1cccnc1)c1ccn(C(=O)c2ccccc2)n1 [Example 1, 1-Benzoyl-1H-pyrazole-3-carboxylic acid pyridin-3-ylamide] | 45%
COC(=O)c1ccsc1NC(=O)c1ccn(C(=O)c2cc(F)ccc2C)n1 [Example 8, 2-{[1-(5-Fluoro-2-methylbenzoyl)-1H-pyrazole-3-carbonyl]amino}-thiophene-3-carboxylic acid methyl ester] | 50%
CCOc1ccccc1C(=O)n1ccc(C(=O)Nc2cc(C)no2)n1 [Example 14, 1-(2-Ethoxybenzoyl)-1H-pyrazole-3-carboxylic acid (3-methylisoxazol-5-yl)amide] | 39%

Continued, values first:

inhibition of 15-lipoxygenase | Structure (SMILES)
45% | CCOc1ccccc1C(=O)n1ccc(C(=O)Nc2cc(Cl)ccc2C#N)n1 [Example 26, 1-(2-Ethoxybenzoyl)-1H-pyrazole-3-carboxylic acid (5-chloro-2-cyanophenyl)amide]
44% | CCCCCc1ccc(C(=O)n2ccc(C(=O)Nc3ccc(N(C)C)cc3)n2)cc1 [Example 23, 1-(4-Pentylbenzoyl)-1H-pyrazole-3-carboxylic acid (4-dimethylaminophenyl)amide]
